According to article PMC6369240, “Biological evaluation and structure activity relationship of 9-methyl-1-phenyl-9H-pyrido[3,4-b]indole derivatives as anti-leishmanial agents” (Bioorganic Chemistry, 2019):

How the values were obtained:
[1] = tested on: L. donovani LdBOB intracellular amastigotes in PMA differentiated THP-1 cells; assay: Intra macrophage L. donovani (amastigote) assay in THP-1 cells; assay type: cell-based, Leishmania donovani; conditions: for EC50: THP-1 macrophages, 72 h, microscopy readout; for S.I (CC50/IC50), L. donovani intracellular amastigote: HeLa CC50 / L. donovani intracellular amastigote EC50
Procedure: Although, axenic amastigotes assay most commonly used to screen new leishmanial agents are different from intracellular amastigotes in terms of protein expression and drug susceptibility. […] THP-1 (human monocytic leukemia) cells were a kind gift from Dr Susan Wylie (Dundee) and maintained in minimal essential medium plus 10% (vol/vol) FBS. […] Briefly, THP-1 cells (20,000 per well, 200 μL) were plated into 96 well plates in presence of 10 nM PMA and incubated at 37 °C in 5% CO2 atmosphere for 75 h. […] Any remaining extracellular amastigotes were removed and the adhered cells were washed with the same supplemented PBS solution as above. Pre-aliquoted compounds in a serial dilution were added from another plate, such that the total well volume was 200 μL and incubated for further 72 h. Cells were fixed with 100% methanol, stained with Giemsa and examined microscopically.

[2] = tested on: L. donovani LdBOB axenic amastigotes; assay: L. donovani axenic amastigote assay (Alamar blue); assay type: cell-based, Leishmania donovani; conditions: for EC50: 72 h, Alamar blue; for S.I (CC50/IC50), L. donovani axenic amastigote: HeLa CC50 / L. donovani axenic amastigote EC50
Procedure: (§1) L. donovaniLdBOB axenic amastigotes or L. infantum JPCM5 MCAN/ES/98/LLM-87 were cultured at 37 °C in modified Eagle’s medium (HOMEM; L. infantum) and axenic amastigotes were incubated for 72 h with compounds, followed by Alamar blue-based assay as previously described.

[3] = tested on: L. infantum JPCM5 MCAN/ES/98/LLM-87 promastigotes; assay: L. infantum promastigote assay (Alamar blue); assay type: cell-based, Leishmania infantum; conditions: for EC50: Leishmania infantum, 72 h, Alamar blue; for S.I (CC50/IC50), L. infantum promastigote: HeLa CC50 / L. infantum promastigote EC50
Procedure: (§2) Anti-leishmanial activity of these analogues was determined by evaluating their inhibition activity against both promastigote, amastigote forms of Leishmania infantum and Leishmania donovani strains. […] Anti-leishmanial drugs miltefosine and pentamidine were used as standards for comparison purpose.
Anti-promastigote activity of these reported β-carboline derivatives was determined by Alamar blue assay method.
(§3) L. donovanipromastigotes were cultured at 37 °C in M199 medium supplemented with 10% heat-inactivated fetal calf serum. L. infantum JPCM5 MCAN/ES/98/LLM-87 promastigotes were cultured at 26 °C in modified Eagle’s medium (HOMEM). Parasites were incubated with serial dilutions of compounds for 72 h, followed by Alamar blue-based assay as previously described.

[4] = tested on: L. donovani promastigotes; assay: L. donovani promastigote assay (Alamar blue); assay type: cell-based, Leishmania donovani; conditions: for EC50: Leishmania donovani, 72 h, Alamar blue; for S.I (CC50/IC50), L. donovani promastigote: HeLa CC50 / L. donovani promastigote EC50
Procedure: as §2
L. donovani promastigote inhibition potency of these reported β-carboline derivatives was determined by Alamar blue assay method.
as §3

[5] = tested on: L. infantum JPCM5 MCAN/ES/98/LLM-87 axenic amastigotes; assay: L. infantum axenic amastigote assay (Alamar blue); assay type: cell-based, Leishmania infantum; conditions: for EC50: Leishmania infantum, 72 h, Alamar blue; for S.I (CC50/IC50), L. infantum axenic amastigote: HeLa CC50 / L. infantum axenic amastigote EC50
Procedure: Alamar blue assay method was used to determine inhibition potential of these β-carboline derivatives against (human life stage forms) axenic amastigotes.
as §1

[6] = HeLa cell cytotoxicity, Alamar blue assay; assay type: cell-based; conditions: human; HeLa cells, ~65 h incubation plus 5 h Alamar Blue
Procedure: HeLa cell cytotoxicity studies were carried out as described previously. Briefly, the cells were cultured in DMEM supplemented with 10% fetal calf serum and 2 mM L-glutamine. Cells were plated at initial cell concentration of 2 × 10^4 cells/well and incubated with the compounds for ∼65 h prior to addition of Alamar Blue solution for further 5 h.

[7] = Leishmania donovani, THP-1, 72 h

Row | Structure (SMILES) | EC50 [1, 7] [µM] | EC50 ([2]; Leishmania donovani) [µM] | EC50 [3] [µM] | EC50 [4] [µM] | EC50 [5] [nM] | S.I (CC50/IC50), L. donovani intracellular amastigote [1] | S.I (CC50/IC50), L. donovani axenic amastigote [2] | S.I (CC50/IC50), L. infantum promastigote [3] | S.I (CC50/IC50), L. donovani promastigote [4] | S.I (CC50/IC50), L. infantum axenic amastigote [5] | CC50 [6] [µM] | melting point [°C] | EC50 [1] [µM] | EC50 [2] [µM]
1 | N=C(N)c1ccc(OCCCCCOc2ccc(C(=N)N)cc2)cc1 [Pentamidine, reference compound] | 23.7 ± 1.8 | 1.6 ± 0.1 | 8.31 ± 0.18 | 6.4 ± 0.11 | 2700 ± 400 | – | – | – | – | – | – | – | – | –
2 | Cn1c2ccccc2c2cc(C(=O)N3CCN(c4ccccc4)CC3)nc(-c3ccccc3)c21 [7a, (9-methyl-1-phenyl-9H-pyrido[3,4-b]indol-3-yl)(4-phenylpiperazin-1-yl)methanone] | 13.5 ± 2 | 10 ± 0.3 | 9.45 ± 0.82 | 11.9 ± 1.2 | 4500 ± 300 | 37.0 | 50.0 | >52.9 | >42.0 | >111.1 | > 500 | 232 to 234 | – | –
3 | Cc1ccccc1N1CCN(C(=O)c2cc3c4ccccc4n(C)c3c(-c3ccccc3)n2)CC1 [7c, (9-methyl-1-phenyl-9H-pyrido[3,4-b]indol-3-yl)(4-o-tolylpiperazin-1-yl)methanone] | 7.8 | 5.3 ± 0.4 | 3.73 ± 0.28 | 9.45 ± 0.72 | 2600 ± 200 | 53.2 | 94.3 | >134.0 | >52.9 | >192.3 | > 500 | 148 to 150 | 9.4 ± 1.3 | –
4 | COc1cccc(N2CCN(C(=O)c3cc4c5ccccc5n(C)c4c(-c4ccccc4)n3)CC2)c1 [7e, (4-(3-methoxyphenyl)piperazin-1-yl)(9-methyl-1-phenyl-9H-pyrido[3,4-b]indol-3-yl)methanone] | – | – | 72.4 ± 6.7 | 28.5 ± 1.8 | – | – | – | >6.9 | >17.5 | – | > 500 | 196 to 198 | – | –
5 | Cn1c2ccccc2c2cc(C(=O)N3CCN(c4ccccc4F)CC3)nc(-c3ccccc3)c21 [7l, (4-(2-fluorophenyl)piperazin-1-yl)(9-methyl-1-phenyl-9H-pyrido[3,4-b]indol-3-yl)methanone] | – | – | 64.9 ± 5.7 | 85.9 ± 7.3 | – | – | – | >7.7 | >5.8 | – | > 500 | 168 to 170 | – | –
6 | COc1ccc(N2CCN(C(=O)c3cc4c5ccccc5n(C)c4c(-c4ccccc4)n3)CC2)cc1 [7d, (4-(4-methoxyphenyl)piperazin-1-yl)(9-methyl-1-phenyl-9H-pyrido[3,4-b]indol-3-yl)methanone] | 1.4 | 0.91 | – | 0.91 ± 0.09 | 1400 ± 100 | 384.6 | 555.6 | >314.5 | >549.5 | >357.1 | > 500 | 170 to 172 | 1.3 ± 0.1 | 0.9 ± 0.1
7 | Cn1c2ccccc2c2cc(C(=O)N3CCN(c4ccccc4Cl)CC3)nc(-c3ccccc3)c21 [7i, (4-(2-chlorophenyl)piperazin-1-yl)(9-methyl-1-phenyl-9H-pyrido[3,4-b]indol-3-yl)methanone] | 22 ± 2.1 | 19.4 ± 1.2 | 21.7 ± 0.6 | 15.2 ± 0.85 | – | 22.7 | 25.8 | >23.0 | >32.9 | – | > 500 | 152 to 154 | – | –
8 | Cn1c2ccccc2c2cc(C(=O)N3CCN(Cc4ccccc4)CC3)nc(-c3ccccc3)c21 [7n, (4-benzylpiperazin-1-yl)(9-methyl-1-phenyl-9H-pyrido[3,4-b]indol-3-yl)methanone] | 5.6 ± 0.9 | 2.2 | 20.4 ± 1.4 | 4.57 ± 0.24 | – | 89.3 | 142.9 | >24.5 | >109.4 | – | > 500 | 158 to 160 | – | 3.5 ± 0.2
9 | Cc1ccc(N2CCN(C(=O)c3cc4c5ccccc5n(C)c4c(-c4ccccc4)n3)CC2)cc1 [7b, (9-methyl-1-phenyl-9H-pyrido[3,4-b]indol-3-yl)(4-p-tolylpiperazin-1-yl)methanone] | 7.2 | 5.8 ± 0.3 | 24.3 ± 1.3 | 14.2 ± 1.2 | – | 63.3 | 86.2 | >20.5 | >35.2 | – | > 500 | 188 to 190 | 7.9 ± 0.4 | –
10 | Cn1c2ccccc2c2cc(C(=O)N3CCN(c4cccc(Cl)c4)CC3)nc(-c3ccccc3)c21 [7h, (4-(3-chlorophenyl)piperazin-1-yl)(9-methyl-1-phenyl-9H-pyrido[3,4-b]indol-3-yl)methanone] | 7.9 | 3.5 | – | 4 ± 0.25 | – | 64.1 | 227.3 | >9.8 | >125 | – | > 500 | 130 to 132 | 7.8 ± 1.3 | 2.2 ± 0.1
11 | Cn1c2ccccc2c2cc(C(=O)N3CCN(c4cccc(Cl)c4Cl)CC3)nc(-c3ccccc3)c21 [7m, (4-(2,3-dichlorophenyl)piperazin-1-yl)(9-methyl-1-phenyl-9H-pyrido[3,4-b]indol-3-yl)methanone] | – | – | 93 ± 7.5 | 118 ± 6.4 | – | – | – | >5.3 | >4.3 | – | > 500 | 166 to 168 | – | –
12 | Cn1c2ccccc2c2cc(C(=O)N3CCN(c4ccccn4)CC3)nc(-c3ccccc3)c21 [7p, (9-methyl-1-phenyl-9H-pyrido[3,4-b]indol-3-yl)(4-(pyridin-2-yl)piperazin-1-yl)methanone] | 9.4 | 12.3 ± 0.6 | 45.7 ± 3.3 | 8.5 ± 0.75 | – | 34.6 | 22.2 | 5.97 | – | – | 273 ± 21.6 | 174 to 176 | 7.9 ± 0.3 | –
13 | Cn1c2ccccc2c2cc(C(=O)N3CCN(c4ccncc4)CC3)nc(-c3ccccc3)c21 [7o, (9-methyl-1-phenyl-9H-pyrido[3,4-b]indol-3-yl)(4-(pyridin-4-yl)piperazin-1-yl)methanone] | 7.9 | 13.9 ± 0.4 | – | 19.5 ± 2.8 | – | 4.1 | 2.1 | 0.48 | 1.52 | – | 29.7 ± 1.5 | 198 to 200 | 7.2 ± 0.5 | –
